Results published in paper PMC8231229, “New Trimethoprim-Like Molecules: Bacteriological Evaluation and Insights into Their Action” (Antibiotics, 2021).
In brackets after ≈: the same amount, converted by molar mass. Like-named read-outs stand apart in the source and are kept apart here. Peptide text beside a SMILES is read from it. * marks the point of attachment. βNA = c1ccc2cc(N*)ccc2c1

Legend:
L-929 cells = test: Cytotoxicity assay (resazurin); format: cell-based, murine
Procedure: (§1) The cytotoxicity assay was carried out in the human hepatocellular carcinoma cell line Hep G2 ATCC and in murine L-929 fibroblasts (NCTC clone 929, ECACC 88102702), based on the experiments described by Vinuesa et al.. The cells were obtained from Dr. Ricardo Pérez-Tomás (Cancer Cell Biology, University of Barcelona). The cytotoxicity of TMP and compounds 1a and 1b was determined by measuring the intracellular reduction of resazurin sodium salt (Sigma-Aldrich, St. Louis, MO, USA). HepG2 and L-929 cells were grown in RPMI 1640 and MEM medium, respectively (Biochrom AG, Berlin, Germany), supplemented with 10% fetal bovine serum. Cells from pre-confluent cultures were harvested with trypsin-EDTA and maintained at 37 °C and 5% CO2. […] Twenty µL of resazurin was then added to each well and the plates were incubated under the same conditions. Fluorescence was measured at an excitation wavelength of 530 nm and an emission wavelength of 590 nm using a scanning multi-well spectrophotometer (FLUOstar OPTIMA, BMG Labtech, Germany). Cytotoxicity was calculated as follows:(1) % Cytotoxicity = 100−(AT−ADB)/(AC−AMB) ×100 where AT is the absorbance of the treated cells, ADB the absorbance of the drug blank control, AC the absorbance of the untreated cells, and ACB the absorbance of the medium blank.

[1] = Cytotoxicity assay (resazurin); format: cell-based, murine; settings: mouse, L-929 fibroblasts; 32 μg/mL, 24 h; percentage of dead cells
Procedure: as §1

E. coli DHFR = target: T1, E. coli DHFR (Escherichia coli, UniProt P0ABQ4); test: Dihydrofolate reductase assay; format: biochemical; settings: inhibitor 5 µM, 30 min incubation
T1 construct: gift of E. Shakhnovich and J.V. Rodrigues (Harvard University)
T1 sequence (P0ABQ4 whole entry): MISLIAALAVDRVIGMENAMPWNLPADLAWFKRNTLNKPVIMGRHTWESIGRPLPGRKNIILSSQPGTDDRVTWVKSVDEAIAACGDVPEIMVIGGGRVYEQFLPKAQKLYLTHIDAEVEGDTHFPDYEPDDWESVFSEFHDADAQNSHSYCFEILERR
Procedure: The DHFR assay is based on the reduction of 7,8-dihydrofolate to 5,6,7,8-tetrahydrofolate catalyzed by DHFR and using NADPH as a cofactor. Purified E. coli DHFR was kindly provided by E. Shakhnovich and J.V. Rodrigues (Harvard University, Cambridge, MA, USA). The DHFR assay kit (CS0340) was purchased from Sigma-Aldrich. The assay was performed in 96-well flat-bottom plates (Corning Costar 3606, NY, USA) with the protocol adjusted to accommodate a final reaction volume of 200 µL. DHFR was diluted to a final concentration of 0.03 µg/mL. The inhibitory effect of compounds 1a and 1b was tested, with TMP serving as the control. All three drugs were used at a concentration of 5 µM, which was higher than the respective MICs (Table 1). To determine the effect of the concentration of the DHFR cofactor NADPH on inhibition, a dilution series of NADPH in assay buffer was carried out to obtain a concentration range between 60 µM and 240 µM. A dilution series of H2F was similarly carried out in assay buffer to obtain a concentration range from 50 µM to 200 µM. In all assays, the enzyme was mixed with the different inhibitors and incubated for 30 min before the enzymatic reaction was initiated by the addition of NADPH and H2F. The reaction was conducted at 37 °C and monitored by the decrease in absorbance at 340 nm (indicative of a decrease in the NADPH concentration). […]

Serratia marcescens NIMA = test: MIC by microdilution (EUCAST), planktonic bacteria; format: cell-based; settings: tested alone
Procedure: (§2) The minimum inhibitory concentrations (MICs) of colistin, TMP, 1a, and 1b were determined using the microdilution method, according to EUCAST recommendations.

HepG2 cells = test: Cytotoxicity assay (resazurin); format: cell-based, human
Procedure: as §1

[2] = test system: Pseudomonas aeruginosa PAO1; design: method as in PMID 31334221; settings: tested alone; cited from earlier work
E. coli 220560529 = test: Susceptibility test in TMP-resistant strain; format: cell-based; settings: data not shown
Procedure: as §2

S. epidermidis 220560752 = test: Susceptibility test in TMP-resistant strain; format: cell-based; settings: data not shown
Procedure: as §2

[3] = test system: Escherichia coli ATCC 25922; design: method as in PMID 31334221; settings: tested alone; cited from earlier work
[4] = Storage stability checked by HPLC-MS; format: physicochemical; settings: for stability of stock solutions in DMSO: kept in the cold; for time after synthesis without signs of decomposition: stored at −20 °C under an inert atmosphere, HPLC-MS
Procedure: Compounds 1a and 1b were prepared as previously reported, from the interaction of TMP with aldehydes and isocyanides in acetonitrile under Yb(OTf)3 catalysis. The compounds were purified by chromatography and stored at −20 °C under an inert atmosphere. Stock solutions in DMSO were stable when kept in the cold. The integrity of these compounds and solutions thereof was confirmed by HPLC-MS (column: ZORBAX Extend-C18 3.5 μm 2.1 × 50 mm, Agilent; mobile phase A: H2O + 0.05% HCOOH; mobile phase B: ACN + 0.05% HCOOH; 10 min; 35 °C). There were no signs of decomposition at least 1 year after their chemical synthesis.

[5] = Cytotoxicity assay (resazurin); format: cell-based, human; settings: human, HepG2 cells; 32 μg/mL, 24 h; percentage of dead cells
Procedure: as §1

S. marcescens NIMA = test: Real-time growth curves with sublethal concentrations; format: cell-based; settings: with SMX (1:20), in the presence of colistin
Procedure: (§3) Additionally, the effect of TMP-SMX and the GBBR analogues in combination with sublethal concentrations of colistin was assessed in growth curves of E. coli ATCC 25922, P. aeruginosa PAO1, and S. marcescens NIMA. Exponential-phase cultures were adjusted to 5 × 10^6 CFU/mL in a final volume of 10 mL of TSB and the antimicrobials were added at sublethal concentrations. Growth was monitored using RTS-1C real-time cell growth loggers (Biosan SIA, Riga, Latvia) in cells incubated for 24 h at 37 °C with shaking at 2000 rpm. Growth was measured every 10 min as the optical density (OD 850 nm).

bacterial growth = test system: bacterial growth; design: method as in PMID 23722434; settings: concentrations up to 40 µg/mL; cited from earlier work
P. aeruginosa PAO1 [6] = test: MIC in presence or absence of efflux pump inhibitor PAßN; format: cell-based; settings: colistin alone
Procedure: The efflux pump inhibitor phenyl-arginyl-β-naphthylamide (PaβN) was purchased from Sigma-Aldrich Chemicals (Madrid, Spain). The MIC of the TMP analogues in combination with SMX in the presence of 20 µg PaβN/mL was determined in P. aeruginosa PAO1 using the microdilution method.

E. coli ATCC 25922 = test: Real-time growth curves with sublethal concentrations; format: cell-based; settings: 0.11 µM colistin alone
Procedure: as §3

P. aeruginosa PAO1 [7] = test: as above; format: cell-based; settings: 0.87 µM colistin alone
Procedure: as §3

[8] = Mus musculus, L929, 24 h, read-out: IC50 (drug concentration needed to inhibit cell growth by 50%)
[9] = Homo sapiens, HepG2, 24 h, read-out: IC50 (drug concentration needed to inhibit cell growth by 50%)

## COc1cc(Cc2cn3c(NC(C)(C)C)c(C)nc3nc2N)cc(OC)c1OC [Compound 1a]
L-929 cells; [8]
  IC50: > 32 µg/mL
[1]
  cytotoxicity at 24 h, 32 μg/mL: 0%
E. coli DHFR
  inhibition at 5 µM: > 80%
Serratia marcescens NIMA; Serratia marcescens
  MIC: 80.1 µM (≈ 32 µg/mL)
HepG2 cells; [9]
  IC50: > 32 µg/mL
[2]
  MIC: >80.10 µM
E. coli 220560529
  effect in TMP-resistant strain: no significant effect
S. epidermidis 220560752
  effect in TMP-resistant strain: no significant effect
[3]
  MIC: 1.25 µM (≈ 0.499 µg/mL)
[4]
  stability of stock solutions in DMSO: stable
  time after synthesis without signs of decomposition: at least 1 year

## COc1cc(Cc2cn3c(NC4CCCCC4)c(-c4cccnc4)nc3nc2N)cc(OC)c1OC [Compound 1b]
L-929 cells; [8]
  IC50: > 32 µg/mL
[1]
  cytotoxicity at 24 h, 32 μg/mL: 0%
E. coli DHFR
  inhibition at 5 µM: > 80%
Serratia marcescens NIMA; Serratia marcescens
  MIC: 16.4 µM (≈ 8 µg/mL)
HepG2 cells; [9]
  IC50: > 32 µg/mL
[5]
  cytotoxicity at 24 h, 32 μg/mL: 0.11%
[2]
  MIC: >65.50 µM
E. coli 220560529
  effect in TMP-resistant strain: no significant effect
S. epidermidis 220560752
  effect in TMP-resistant strain: no significant effect
[3]
  MIC: 1.02 µM (≈ 0.498 µg/mL)
[4]
  stability of stock solutions in DMSO: stable
  time after synthesis without signs of decomposition: at least 1 year
S. marcescens NIMA
  effect on growth curve: complete abolition of growth

## NC(N)=NCCC[C@H](NC(=O)[C@@H](N)Cc1ccccc1)C(=O)Nc1ccc2ccccc2c1 [PAßN, phenylalanine arginyl ß-naphthylamide] (H-Phe-Arg-βNA)
Bacterial growth
  effect on bacterial growth: no detectable effect on bacterial growth

## COc1cc(Cc2cnc(N)nc2N)cc(OC)c1OC [TMP, Trimethoprim]
L-929 cells; Mus musculus, L929, 24 h; read-out: IC50 (drug concentration needed to inhibit cell growth by 50%)
  IC50: > 32 µg/mL
[1]
  cytotoxicity at 24 h, 32 μg/mL: 0.8%
Serratia marcescens NIMA; Serratia marcescens
  MIC: 13.8 µM (≈ 4 µg/mL)
HepG2 cells; Homo sapiens, HepG2, 24 h; read-out: IC50 (drug concentration needed to inhibit cell growth by 50%)
  IC50: > 32 µg/mL
[5]
  cytotoxicity at 24 h, 32 μg/mL: 0.35%
[2]
  MIC: >110.22 µM
[3]
  MIC: 0.43 µM (≈ 0.125 µg/mL)

## colistin
Serratia marcescens NIMA
  MIC: >886.23 µM
[2]
  MIC: 1.73 µM
[3]
  MIC: 0.43 µM
P. aeruginosa PAO1 [6]; PAßN 20 µg/mL
  MIC With PAßN: 1.73 µM
P. aeruginosa PAO1 [6]
  MIC Without PAßN: 1.73 µM
E. coli ATCC 25922
  delay in growth: 10 h
P. aeruginosa PAO1 [7]
  delay in growth: 2 h
